These results are taken from patent US20180104223A1, “TREATMENT OF PAIN” (PROXIMAGEN LIMITED, priority 2015, published 2018).

Test [1] has as its system CFA induced oedema, hind paw. As to the kind of experiment: CFA induced oedema in rat, paw volume (plethysmometer). The conditions noted are these: 150, 250 and 500 mg/kg p.o., 4 hours post compound administration. In kind it is in vivo, rat (male Sprague Dawley). How it is done:
(§1) Assessment of the anti-hyperalgesic properties of (3S)-tetrahydrofuran-3-yl (4S)-4-isopropyl-1,4,6,7-tetrahydro-5H-imidazo[4,5-c]pyridine-5-carboxylate mesylate salt was determined through measurement of weight bearing following CFA induced hypersensitivity. Naive rats distribute their body weight equally between the two hind paws. However, when the injected (left) hind paw is painful, the weight is re-distributed so that less weight is put on the affected paw (decrease in weight bearing on injured paw). Weight bearing through each hind limb was measured using a rat incapacitance tester (Linton Instruments, UK). Rats were placed in the incapacitance tester with the hind paws on separate sensors and the average force exerted by both hind limbs was recorded over 4 seconds. The injection of CFA also induces an oedema that can be assessed by paw volume; this is measured using a plethysmometer. The rat's hind paw is placed into the cylinder containing a solution and the volume of displaced liquid determines the paw volume.
Naive male, Sprague Dawley rats were acclimatised with food and water available ad libitum. […] Weight bearing was assessed in all groups 1, 2 and 4 hours post compound administration. Paw volume was assessed 4 hours post compound administration. Data was analysed by comparing treatment groups to control group at each time point.

For test [2], the system named is CFA (Complete Freunds Adjuvant) Induced Hypersensitivity in Rat. Briefly: CFA induced hypersensitivity in rat, weight bearing (incapacitance tester). It counts as in vivo, rat (male Sprague Dawley). How it is done: (3S)-Tetrahydrofuran-3-yl (4S)-4-isopropyl-1,4,6,7-tetrahydro-5H-imidazo[4,5-c]-pyridine-5-carboxylate was investigated (FIG. 1) in the CFA thermal hyperalgesia model, which is an established model for inflammatory pain. […] In more detail:
as §1
Naive male, Sprague Dawley rats were acclimatised with food and water available ad libitum. Habituation to the incapacitance tester was performed. Baseline weight bearing and paw volume recordings were taken prior to induction of insult. Inflammatory hypersensitivity was induced by intraplantar injection of CFA (100 ul of 1 mg/ml solution) into the left hind paw. A pre-treatment weight bearing and paw volume measurement was taken to assess hypersensitivity 23 hours post-CFA. Animals were then ranked and randomised according to CFA window in a Latin square design. (3S)-Tetrahydrofuran-3-yl (4S)-4-isopropyl-1,4,6,7-tetrahydro-5H-imidazo[4,5-c]pyridine-5-carboxylate mesylate salt was then given at 150, 250 and 500 mg/kg p.o. (dosed in water at 2 mL/Kg, pH ˜5-6), alongside vehicle and reference group (indomethacin), n=9-10 per group. Weight bearing was assessed in all groups 1, 2 and 4 hours post compound administration. Paw volume was assessed 4 hours post compound administration. Data was analysed by comparing treatment groups to control group at each time point.
Weight bearing (g) readings were taken for both right and left hind paws and the difference calculated. Data is expressed as % reversal of the hypersensitivity to pain, (post dose reading−pre dose reading)/(naïve reading−pre dose reading)×100, where naive weight bearing difference−pre dose weight bearing difference is defined as the CFA window to be reversed. Statistical analysis was conducted by means of repeated measures ANOVA followed by Planned comparison test using InVivoStat (invivostat.co.uk), (p<0.05 considered significant).

As for `CC(C)[C@H]1c2nc[nH]c2CCN1C(=O)O[C@H]1CCOC1.CS(=O)(=O)O` [(3S)-Tetrahydrofuran-3-yl (4S)-4-isopropyl-1,4,6,7-tetrahydro-5H-imidazo[4,5-c]pyridine-5-carboxylate, Methananesulfonic Acid Salt], the “effect on paw volume” value in test [1] is on record as “No effect”. Further, the “reversal of hypersensitivity (weight bearing)” value in test [2] (150 mg/kg p.o., rat, 1, 2 and 4 hours post dose) is “no significant reversal of hypersensitivity at any time point”; in test [2] (250 mg/kg p.o., rat, 4 hours post dose), “significant reversal”; in test [2] (500 mg/kg p.o., rat, 1, 2 and 4 hours post dose), “effective at all time points”. Further, the “time of maximum effect on hypersensitivity” value in test [2] (500 mg/kg p.o., rat, post dose) amounted to 4 h.

Consider `CC(C)[C@H]1c2[nH]cnc2CCN1C(=O)O[C@H]1CCOC1` [(3S)-Tetrahydrofuran-3-yl (4S)-4-isopropyl-1,4,6,7-tetrahydro-5H-imidazo[4,5-c]pyridine-5-carboxylate], for which, in test [2] (FIG. 1, summary statement), the “efficacy compared with benchmark indomethacin in the CFA thermal hyperalgesia model” value was “comparably in efficacy to the gold standard benchmark indomethacin” and the “efficacy in the CFA thermal hyperalgesia model (inflammatory pain)” value is “effective in a dose-dependent manner”.
